Reference: patent EP0804408B1, “NOVEL 4-SUBSTITUTED 2,6-DI-TERT-BUTYLPHENOL COMPOUNDS, PHARMACEUTICAL COMPOSITIONS CONTAINING SAME AND PREPARATION METHOD THEREFOR” (priority 1994, dated 1996)

System: VIH-1/LAI
Experiment: Inactivation of HIV-1: infectious titre before/after treatment, titrated on MT4 cells (p24 antigen ELISA, day +10)
Format: cell-based
Text: Afin d'évaluer l'efficacité d'AVF1, il a été procédé à la comparaison des titres infectieux de suspensions virales avant et après traitement par trois concentrations de AVF1 pendant trois temps de contact. A partir des résultats expérimentaux, il a été défini pour chaque concentration et chaque temps de contact testés, un facteur de […] du titre infectieux du VIH-1. Ce facteur de réduction exprimé en log 10 correspond au rapport du titre infectieux du virus non traité et du titre infectieux du virus traité par AVF1.
L'étude a été réalisée en deux étapes : • Traitement du VIH-1/LAI par trois concentrations d'AVF1 pendant 5, 30 et 60 minutes. • Evaluation des titres infectieux des échantillons obtenus avant et après traitement par AVF1 sur cellules MT4.
Le virus a été dilué au 1/10ème dans chacune des solutions de AVF1 (solution diluée à 2%, 1%, et 0,5%).
Le virus a été maintenu dans chacune de ces solutions pendant 5 minutes, 30 minutes et 60 minutes, à température ambiante puis immédiatement dilué en tampon NTE. Après dilution en tampn NTE, les échantillons ont été ultracentrifugés afin d'éliminer AVF1 et éviter ainsi sa toxicité sur les cellules MT4 utilisées pour le titrage du virus. Cette étape d'ultracentrifugation permet aussi de concentrer les particules virales résiduelles. Après centrifugation, chaque culot a été repris dans 1 ml de milieu de culture, filtré sur un filtre de 0,45 µm aliquoté et stocké à -80°C.
La même expérience a été réalisée deux fois.
La méthode de titrage du VIH-1 sur cellules MT4 est basée sur la détection d'une production virale par les cellules inoculées maintenues 10 jours en culture, mesurée par le dosage de l'antigène p24 VIH-1 dans le surnageant de culture.
Brièvement, les cellules MT4 sont inoculées avec des dilutions en série de virus non traité (contrôle positif) ou avec les échantillons expérimentaux (virus traités par AVF1).
Le VIH infecte les cellules, se multiplie, puis est libéré dans le surnageant de culture par bourgeonnement à la surface de la cellule. Afin de détecter la présence du virus, les surnageants de culture sont récupérés tous les 3 ou 4 jours et testés au jour +10 après l'infection quant à la présence de l'antigène p24 VIH-1.
La détection de l'antigène p24 VIH-1 est réalisée à l'aide d'une technique ELISA sandwich mettant en oeuvre la trousse ELAVIA AgI commercialisée par Diagnostic Pasteur, qui permet la détection de 50 pg d'antigène p24 par millilitre de surnageant.
Le principe de cette méthode est brièvement le suivant : l'antigène p24 libéré après la lyse des particules virales présentes dans le surnageant est complexé à des anticorps anti-VIH-1 immobilisés dans les puits des microplaques. L'antigène est alors révélé par anticorps polyclonaux anti-VIH-1 biotinylés, reconnus eux-mêmes par un conjugué streptavidine péroxydase. La présence de ce complexe est révélée par une réaction enzymatique après addition du substrat (H2O2) et du chromogène (OPD). Le produit de cette réaction est coloré et peut donc être détecté par mesure de la densité optique à 492 nm. La quantité de produit formé au cours de la réaction enzymatique est directement proportionnelle à la quantité d'antigène présente dans l'échantillon testé.
Les échantillons à tester ont été dilués ou non dans du milieu de culture. 1 ml d'échantillon non dilué, et 0,4 ml des dilutions suivantes ont été inoculés sur un culot de 1,2 10^6 cellules MT4. Après l'adsoption virale pendant 1 heure à 37°C, l'innoculum viral a été éliminé et les cellules lavées 3 fois en milieu de culture. Les cellules ont alors été resuspendues dans 4 ml de milieu de culture, distribuées dans 4 puits de plaque 24 puits et incubées à 37°C en présence de 5% de CO2.
Tous les 3 ou 4 jours, les surnageants de culture contenus dans chaque puits ont été prélevés et stockés à -80°C puis testés quant à la présence d'antigène p24 VIH-1.
Le titre infectieux est exprimé en "tissue Culture Infectious Dose 50" par millilitre d'échantillon (TCID 50/ml). […]

[1] = AVF1 0,5%, 5 minutes, 1ère expérience
[2] = AVF1 0,5%, 5 minutes, 2ème expérience
[3] = AVF1 0,5%, 30 minutes, 1ère expérience
[4] = AVF1 0,5%, 30 minutes, 2ème expérience
[5] = AVF1 0,5%, 60 minutes, 1ère expérience
[6] = AVF1 0,5%, 60 minutes, 2ème expérience
[7] = AVF1 1%, 5 minutes, 1ère expérience
[8] = AVF1 1%, 5 minutes, 2ème expérience
[9] = AVF1 1%, 30 minutes, 1ère expérience
[10] = AVF1 1%, 30 minutes, 2ème expérience
[11] = AVF1 1%, 60 minutes, 1ère expérience
[12] = AVF1 1%, 60 minutes, 2ème expérience
[13] = AVF1 2%, 5 minutes, 1ère expérience
[14] = AVF1 2%, 5 minutes, 2ème expérience
[15] = AVF1 2%, 30 minutes, 1ère expérience
[16] = AVF1 2%, 30 minutes, 2ème expérience
[17] = AVF1 2%, 60 minutes, 1ère expérience
[18] = AVF1 2%, 60 minutes, 2ème expérience

Q: `CC(C)(C)c1cc(C(=O)OCCOCCOCCOCCOCCOCCOCCOCCO)cc(C(C)(C)C)c1O` [AVF1, 3,5-di-t-butyl-4-hydroxybenzoate d'octaoxyéthylèneglycol] was tested. Which “Facteur de réduction Log TCID50/ml” value [1] did it give?
A: The value was > 6,9 Log TCID50/ml.

Q: What about the “Titre TCID 50/ml” value [1] of the same compound?
A: Its value is less than 4 TCID 50/ml.

Q: And the “Facteur de réduction Log TCID50/ml” value [2]?
A: Its value is > 6,9 Log TCID50/ml.

Q: And the “Titre TCID 50/ml” value [2]?
A: The value was less than 4 TCID 50/ml.

Q: What about the “Facteur de réduction Log TCID50/ml” value [3] of the same compound?
A: The value was > 6,9 Log TCID50/ml.

Q: And the “Titre TCID 50/ml” value [3]?
A: Its value is less than 4 TCID 50/ml.

Q: What about the “Facteur de réduction Log TCID50/ml” value [4] of the same compound?
A: Its value is > 6,9 Log TCID50/ml.

Q: What about the “Titre TCID 50/ml” value [4] of the same compound?
A: The value was less than 4 TCID 50/ml.

Q: What about the “Facteur de réduction Log TCID50/ml” value [5] of the same compound?
A: Its value is > 6,9 Log TCID50/ml.

Q: And the “Titre TCID 50/ml” value [5]?
A: The value was less than 4 TCID 50/ml.

Q: What about the “Facteur de réduction Log TCID50/ml” value [6] of the same compound?
A: The value was > 6,9 Log TCID50/ml.

Q: What about the “Titre TCID 50/ml” value [6] of the same compound?
A: Its value is less than 4 TCID 50/ml.

Q: What about the “Facteur de réduction Log TCID50/ml” value [7] of the same compound?
A: Its value is > 6,9 Log TCID50/ml.

Q: And the “Titre TCID 50/ml” value [7]?
A: The value was less than 4 TCID 50/ml.

Q: What about the “Facteur de réduction Log TCID50/ml” value [8] of the same compound?
A: Its value is > 6,9 Log TCID50/ml.

Q: What about the “Titre TCID 50/ml” value [8] of the same compound?
A: Its value is less than 4 TCID 50/ml.

Q: What about the “Facteur de réduction Log TCID50/ml” value [9] of the same compound?
A: Its value is > 6,9 Log TCID50/ml.

Q: What about the “Titre TCID 50/ml” value [9] of the same compound?
A: The value was less than 4 TCID 50/ml.

Q: What about the “Facteur de réduction Log TCID50/ml” value [10] of the same compound?
A: The value was > 6,9 Log TCID50/ml.

Q: What about the “Titre TCID 50/ml” value [10] of the same compound?
A: Its value is less than 4 TCID 50/ml.

Q: And the “Facteur de réduction Log TCID50/ml” value [11]?
A: The value was > 6,9 Log TCID50/ml.

Q: And the “Titre TCID 50/ml” value [11]?
A: Its value is less than 4 TCID 50/ml.

Q: And the “Facteur de réduction Log TCID50/ml” value [12]?
A: Its value is > 6,9 Log TCID50/ml.

Q: And the “Titre TCID 50/ml” value [12]?
A: Its value is less than 4 TCID 50/ml.

Q: And the “Facteur de réduction Log TCID50/ml” value [13]?
A: The value was > 6,9 Log TCID50/ml.

Q: What about the “Titre TCID 50/ml” value [13] of the same compound?
A: The value was less than 4 TCID 50/ml.

Q: And the “Facteur de réduction Log TCID50/ml” value [14]?
A: The value was > 6,9 Log TCID50/ml.

Q: What about the “Titre TCID 50/ml” value [14] of the same compound?
A: Its value is less than 4 TCID 50/ml.

Q: What about the “Facteur de réduction Log TCID50/ml” value [15] of the same compound?
A: The value was > 6,9 Log TCID50/ml.

Q: And the “Titre TCID 50/ml” value [15]?
A: Its value is less than 4 TCID 50/ml.

Q: What about the “Facteur de réduction Log TCID50/ml” value [16] of the same compound?
A: Its value is > 6,9 Log TCID50/ml.

Q: And the “Titre TCID 50/ml” value [16]?
A: Its value is less than 4 TCID 50/ml.

Q: What about the “Facteur de réduction Log TCID50/ml” value [17] of the same compound?
A: Its value is > 6,9 Log TCID50/ml.

Q: What about the “Titre TCID 50/ml” value [17] of the same compound?
A: The value was less than 4 TCID 50/ml.

Q: And the “Facteur de réduction Log TCID50/ml” value [18]?
A: Its value is > 6,9 Log TCID50/ml.

Q: What about the “Titre TCID 50/ml” value [18] of the same compound?
A: Its value is less than 4 TCID 50/ml.

Q: And the “réduction du pouvoir infectieux” value (solution à 0,5% de AVF1, 5 minutes)?
A: The value was ≥ 6,9 log TCID50/ml.

Q: And the “particules infectieuses VIH-1 détectées” value (whatever the concentration (2%, 1%, 0,5%) and contact time (5, 30, 60 minutes))?
A: The value was “Aucune particule infectieuse VIH-1 n'a été détectée”.
